Assay [1] deals with T1, Dual specificity tyrosine-phosphorylation-regulated kinase 2 (Homo sapiens) (UniProt Q92630).
T1 sequence (whole entry): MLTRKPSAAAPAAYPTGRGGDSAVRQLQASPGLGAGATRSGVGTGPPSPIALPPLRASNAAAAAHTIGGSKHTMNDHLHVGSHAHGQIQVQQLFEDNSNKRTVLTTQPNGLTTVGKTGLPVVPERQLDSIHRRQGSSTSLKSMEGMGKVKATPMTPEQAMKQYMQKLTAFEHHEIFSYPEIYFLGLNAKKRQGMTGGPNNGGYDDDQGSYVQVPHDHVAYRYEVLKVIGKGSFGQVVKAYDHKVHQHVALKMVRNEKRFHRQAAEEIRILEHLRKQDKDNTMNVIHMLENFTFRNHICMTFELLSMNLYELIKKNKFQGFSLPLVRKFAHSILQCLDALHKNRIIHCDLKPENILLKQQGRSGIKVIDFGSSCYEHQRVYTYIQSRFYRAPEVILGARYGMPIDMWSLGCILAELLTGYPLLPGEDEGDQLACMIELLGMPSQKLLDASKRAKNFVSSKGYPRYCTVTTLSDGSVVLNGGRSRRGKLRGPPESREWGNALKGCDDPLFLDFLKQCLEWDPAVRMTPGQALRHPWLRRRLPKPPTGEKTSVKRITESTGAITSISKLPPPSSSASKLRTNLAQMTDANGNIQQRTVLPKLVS
Briefly: Inhibition of human recombinant DYRK2 at 15 nM related to control ULK1.

The target of assay [2] is T2, Serine/threonine-protein kinase Nek11 (Homo sapiens) (UniProt Q8NG66).
T2 sequence (whole entry): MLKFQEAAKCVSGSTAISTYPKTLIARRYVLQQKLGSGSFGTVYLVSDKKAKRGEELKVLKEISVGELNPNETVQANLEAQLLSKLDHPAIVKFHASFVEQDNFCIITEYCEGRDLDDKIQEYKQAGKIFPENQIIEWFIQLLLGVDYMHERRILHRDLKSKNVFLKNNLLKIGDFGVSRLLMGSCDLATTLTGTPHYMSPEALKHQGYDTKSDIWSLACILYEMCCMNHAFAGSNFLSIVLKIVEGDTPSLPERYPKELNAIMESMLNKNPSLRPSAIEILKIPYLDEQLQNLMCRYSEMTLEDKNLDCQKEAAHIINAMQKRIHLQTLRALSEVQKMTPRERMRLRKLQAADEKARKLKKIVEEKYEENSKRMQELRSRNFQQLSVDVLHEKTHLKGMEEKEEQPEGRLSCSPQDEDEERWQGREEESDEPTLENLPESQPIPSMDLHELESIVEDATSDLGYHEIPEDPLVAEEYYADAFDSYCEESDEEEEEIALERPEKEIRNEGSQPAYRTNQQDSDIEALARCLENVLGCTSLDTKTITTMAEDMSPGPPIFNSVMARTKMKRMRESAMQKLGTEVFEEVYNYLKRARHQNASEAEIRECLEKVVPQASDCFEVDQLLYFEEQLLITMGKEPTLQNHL
Kind of assay: Inhibition of human recombinant NEK11 at 15 nM related to control ULK1.

Assay [3] concerns the target Casein kinase II subunit alpha' (Homo sapiens) (UniProt P19784). Kind of assay: Inhibition of human recombinant CK2a2 at 40 nM in presence of ATP by radiometric assay relative to control.
For assay [4], the target named is T3, Inhibitor of nuclear factor kappa-B kinase subunit epsilon (Homo sapiens) (UniProt Q14164).
T3 sequence (whole entry): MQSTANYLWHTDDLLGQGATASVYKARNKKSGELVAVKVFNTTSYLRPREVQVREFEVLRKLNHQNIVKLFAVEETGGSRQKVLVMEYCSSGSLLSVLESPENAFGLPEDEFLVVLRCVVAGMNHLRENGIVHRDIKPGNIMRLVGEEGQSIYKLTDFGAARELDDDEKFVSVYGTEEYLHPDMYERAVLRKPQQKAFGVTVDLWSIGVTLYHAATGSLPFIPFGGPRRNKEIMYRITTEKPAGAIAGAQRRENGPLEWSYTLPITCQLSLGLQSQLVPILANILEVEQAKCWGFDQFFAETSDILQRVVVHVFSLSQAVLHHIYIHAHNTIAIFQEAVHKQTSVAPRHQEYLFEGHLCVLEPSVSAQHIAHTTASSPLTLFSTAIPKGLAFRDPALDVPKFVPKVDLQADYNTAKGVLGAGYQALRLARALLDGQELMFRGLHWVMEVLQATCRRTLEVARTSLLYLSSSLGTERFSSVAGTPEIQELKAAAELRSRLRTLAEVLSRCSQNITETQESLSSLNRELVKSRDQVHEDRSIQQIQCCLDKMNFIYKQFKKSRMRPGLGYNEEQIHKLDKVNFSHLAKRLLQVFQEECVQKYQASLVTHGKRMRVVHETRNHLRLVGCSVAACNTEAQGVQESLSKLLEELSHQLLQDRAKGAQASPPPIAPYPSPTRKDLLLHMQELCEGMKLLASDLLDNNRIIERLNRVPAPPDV
Briefly: Inhibition of human recombinant IKKe at 40 nM in presence of ATP by radiometric assay relative to control.

The target of assay [5] is Rho-associated protein kinase 1 (Homo sapiens) (UniProt Q13464). Briefly: Inhibition of human recombinant ROCK1 at 40 nM in presence of ATP by radiometric assay relative to control.
Sequence of Rho-associated protein kinase 1 (Homo sapiens) (Q13464 2-1354 limits assumed): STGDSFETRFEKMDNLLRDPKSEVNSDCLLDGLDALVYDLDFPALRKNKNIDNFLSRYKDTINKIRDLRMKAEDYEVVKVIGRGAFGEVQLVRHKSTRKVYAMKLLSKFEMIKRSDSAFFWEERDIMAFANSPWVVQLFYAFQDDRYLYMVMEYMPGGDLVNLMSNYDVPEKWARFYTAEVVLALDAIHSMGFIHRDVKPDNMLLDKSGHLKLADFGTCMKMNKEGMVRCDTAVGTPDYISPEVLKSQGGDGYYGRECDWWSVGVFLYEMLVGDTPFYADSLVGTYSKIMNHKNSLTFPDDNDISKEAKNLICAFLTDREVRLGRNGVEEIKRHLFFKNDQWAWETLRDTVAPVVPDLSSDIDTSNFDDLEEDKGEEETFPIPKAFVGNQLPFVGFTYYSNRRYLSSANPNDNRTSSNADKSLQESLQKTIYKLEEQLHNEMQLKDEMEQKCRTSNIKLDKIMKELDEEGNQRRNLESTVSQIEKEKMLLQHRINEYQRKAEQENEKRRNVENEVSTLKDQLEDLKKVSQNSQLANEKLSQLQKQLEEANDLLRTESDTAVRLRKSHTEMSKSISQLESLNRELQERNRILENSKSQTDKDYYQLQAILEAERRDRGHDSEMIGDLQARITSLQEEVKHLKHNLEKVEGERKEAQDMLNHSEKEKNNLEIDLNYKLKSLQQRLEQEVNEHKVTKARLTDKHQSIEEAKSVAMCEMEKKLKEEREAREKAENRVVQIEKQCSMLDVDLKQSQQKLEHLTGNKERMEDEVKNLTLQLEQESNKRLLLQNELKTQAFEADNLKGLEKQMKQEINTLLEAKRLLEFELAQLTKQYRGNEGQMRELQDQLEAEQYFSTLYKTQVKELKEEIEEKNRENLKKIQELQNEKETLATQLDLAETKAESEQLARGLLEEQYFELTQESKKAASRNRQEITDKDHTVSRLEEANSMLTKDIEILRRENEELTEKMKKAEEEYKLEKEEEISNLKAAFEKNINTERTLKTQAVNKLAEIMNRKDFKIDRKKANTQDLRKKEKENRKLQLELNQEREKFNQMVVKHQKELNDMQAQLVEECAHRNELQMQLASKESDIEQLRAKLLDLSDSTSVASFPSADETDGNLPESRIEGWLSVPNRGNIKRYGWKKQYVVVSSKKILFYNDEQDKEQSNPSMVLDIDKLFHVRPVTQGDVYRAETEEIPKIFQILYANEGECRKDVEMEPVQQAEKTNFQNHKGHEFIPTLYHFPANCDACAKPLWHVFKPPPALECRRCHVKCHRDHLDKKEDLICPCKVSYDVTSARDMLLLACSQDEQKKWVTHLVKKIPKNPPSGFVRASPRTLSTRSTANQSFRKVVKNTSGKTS
The target in assay [6] is Serine/threonine-protein kinase PAK 2 (Homo sapiens) (UniProt Q13177). Briefly: Inhibition of human recombinant PAK2 at 40 nM in presence of ATP by radiometric assay relative to control.
Sequence of Serine/threonine-protein kinase PAK 2 (Homo sapiens) (Q13177 whole entry): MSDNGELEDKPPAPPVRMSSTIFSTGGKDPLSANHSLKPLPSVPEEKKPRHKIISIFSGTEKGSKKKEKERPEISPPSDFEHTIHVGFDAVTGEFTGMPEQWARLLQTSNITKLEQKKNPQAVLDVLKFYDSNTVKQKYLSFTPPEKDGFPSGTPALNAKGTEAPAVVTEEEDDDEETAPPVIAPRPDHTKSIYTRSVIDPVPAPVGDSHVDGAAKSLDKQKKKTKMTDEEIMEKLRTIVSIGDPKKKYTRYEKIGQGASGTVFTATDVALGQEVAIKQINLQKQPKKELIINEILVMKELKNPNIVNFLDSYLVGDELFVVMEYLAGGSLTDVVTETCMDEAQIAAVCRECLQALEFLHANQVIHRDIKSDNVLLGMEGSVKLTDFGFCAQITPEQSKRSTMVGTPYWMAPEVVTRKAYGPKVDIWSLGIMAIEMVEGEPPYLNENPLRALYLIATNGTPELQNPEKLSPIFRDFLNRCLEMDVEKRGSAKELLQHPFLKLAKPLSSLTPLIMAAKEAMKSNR
Assay [7] deals with Serine/threonine-protein kinase PLK1 (Homo sapiens) (UniProt P53350). Briefly: Inhibition of human recombinant PLK1 at 500 nM in presence of ATP by radiometric assay relative to control.
Sequence of Serine/threonine-protein kinase PLK1 (Homo sapiens) (P53350 whole entry): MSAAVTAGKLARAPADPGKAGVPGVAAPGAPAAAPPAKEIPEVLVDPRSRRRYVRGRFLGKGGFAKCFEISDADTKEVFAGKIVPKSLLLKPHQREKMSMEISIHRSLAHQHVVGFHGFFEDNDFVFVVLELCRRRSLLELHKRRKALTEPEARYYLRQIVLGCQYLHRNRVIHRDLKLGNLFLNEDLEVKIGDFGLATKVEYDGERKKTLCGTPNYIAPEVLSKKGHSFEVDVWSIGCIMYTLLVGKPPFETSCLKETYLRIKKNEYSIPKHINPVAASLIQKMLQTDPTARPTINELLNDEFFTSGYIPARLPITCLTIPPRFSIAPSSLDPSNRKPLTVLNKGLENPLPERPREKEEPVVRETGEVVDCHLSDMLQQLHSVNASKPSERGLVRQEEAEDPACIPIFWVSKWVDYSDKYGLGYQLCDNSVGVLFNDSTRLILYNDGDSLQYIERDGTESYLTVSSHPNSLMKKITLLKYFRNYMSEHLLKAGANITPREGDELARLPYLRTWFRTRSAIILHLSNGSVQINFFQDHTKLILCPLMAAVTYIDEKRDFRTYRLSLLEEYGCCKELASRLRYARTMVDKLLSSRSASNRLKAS
In assay [8] the target is Proto-oncogene tyrosine-protein kinase Src (Homo sapiens) (UniProt P12931). Kind of assay: Inhibition of human recombinant SRC at 500 nM related to control ULK1.
Sequence of Proto-oncogene tyrosine-protein kinase Src (Homo sapiens) (P12931 2-536 limits assumed): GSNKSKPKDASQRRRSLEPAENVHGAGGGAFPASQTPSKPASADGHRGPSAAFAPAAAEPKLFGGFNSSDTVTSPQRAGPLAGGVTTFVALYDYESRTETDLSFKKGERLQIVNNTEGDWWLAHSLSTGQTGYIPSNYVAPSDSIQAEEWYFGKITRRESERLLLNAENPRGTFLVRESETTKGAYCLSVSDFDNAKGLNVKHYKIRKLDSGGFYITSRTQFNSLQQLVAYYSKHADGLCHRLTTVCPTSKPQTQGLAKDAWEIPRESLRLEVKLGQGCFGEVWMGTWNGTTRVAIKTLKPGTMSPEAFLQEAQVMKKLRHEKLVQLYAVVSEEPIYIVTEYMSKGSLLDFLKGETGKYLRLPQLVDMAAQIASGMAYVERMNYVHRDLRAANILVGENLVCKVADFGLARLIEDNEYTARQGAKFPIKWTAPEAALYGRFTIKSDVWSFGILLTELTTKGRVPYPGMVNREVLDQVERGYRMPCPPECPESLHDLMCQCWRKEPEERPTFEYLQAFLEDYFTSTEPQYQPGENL
For assay [9], the target named is T4, Serine/threonine-protein kinase NLK (Homo sapiens) (UniProt Q9UBE8).
T4 sequence (whole entry): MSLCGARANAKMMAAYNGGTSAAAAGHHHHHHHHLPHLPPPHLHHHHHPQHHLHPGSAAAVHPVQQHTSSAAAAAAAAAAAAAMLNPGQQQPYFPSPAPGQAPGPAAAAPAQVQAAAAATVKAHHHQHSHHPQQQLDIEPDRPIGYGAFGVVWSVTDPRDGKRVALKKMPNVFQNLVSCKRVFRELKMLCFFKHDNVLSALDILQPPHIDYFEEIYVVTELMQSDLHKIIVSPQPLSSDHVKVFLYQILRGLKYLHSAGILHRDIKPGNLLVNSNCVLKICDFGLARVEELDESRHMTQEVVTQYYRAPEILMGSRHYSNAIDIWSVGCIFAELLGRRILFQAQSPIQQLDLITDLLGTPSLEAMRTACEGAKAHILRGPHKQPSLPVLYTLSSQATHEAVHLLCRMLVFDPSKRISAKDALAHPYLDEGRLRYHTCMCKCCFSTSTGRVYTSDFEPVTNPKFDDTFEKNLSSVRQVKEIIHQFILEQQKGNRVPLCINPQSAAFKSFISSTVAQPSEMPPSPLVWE
Briefly: Inhibition of human recombinant NLK at 500 nM related to control ULK1.

Sequence of Casein kinase II subunit alpha' (Homo sapiens) (P19784 whole entry, looked up): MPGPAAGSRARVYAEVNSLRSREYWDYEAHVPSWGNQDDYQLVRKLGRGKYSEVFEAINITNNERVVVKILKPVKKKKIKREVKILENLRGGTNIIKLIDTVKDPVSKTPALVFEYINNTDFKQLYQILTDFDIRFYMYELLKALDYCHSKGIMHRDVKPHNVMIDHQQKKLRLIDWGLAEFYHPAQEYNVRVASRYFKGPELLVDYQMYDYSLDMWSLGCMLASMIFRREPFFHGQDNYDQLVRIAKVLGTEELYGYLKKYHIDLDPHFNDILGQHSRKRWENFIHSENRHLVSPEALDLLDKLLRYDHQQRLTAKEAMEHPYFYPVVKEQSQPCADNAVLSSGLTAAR

Consider `CC(C)[C@H](NC(=O)c1cc(-c2cnn3cc(-c4ccc(OCCN5CCCCC5)cc4)cnc23)cs1)C(F)(F)F`, for which the fold change (FC) worked out at 0.09 in assay [1] and 0 in assay [2].

On to `O=C(N[C@@H](C1CC1)C(F)(F)F)c1cc(-c2cnn3cc(-c4ccc(F)cc4)cnc23)cs1`, for which the inhibition in assay [3] amounted to 8%; in assay [4] it was 30%; in assay [5], 0%; in assay [6], 0%.

In the case of `CNC(=O)c1ccccc1Oc1nc(Nc2cc(OC)c(OC)c(OC)c2)ncc1Br`, in assay [7], the inhibition worked out at 0%. In addition, the fold change (FC) in assay [8] is 0.26; in [9] it was 0.05.

The term inhibition denotes the relative decrease from the control value, in per cent.

Source of the values: ChEMBL document CHEMBL5653631, “A Potent and Selective ULK1 Inhibitor Suppresses Autophagy and Sensitizes Cancer Cells to Nutrient Stress” (iScience, 2018).
